From ChEMBL document CHEMBL5104227, “Synthesis and evaluation of radiolabeled porphyrin derivatives for cancer diagnoses and their nonradioactive counterparts for photodynamic therapy” (RSC Med Chem, 2022)
Calls of active or inactive are those of the source. The rule behind the calls is not given here.

Key:
[1] = tested on: Colon 26; test: Phototoxicity against […] Colon 26 cells assessed as inhibition of cell growth preincubated for 24 hrs followed by compound washout with replacement of fresh medium and irradiation with 50 W LED light by MTT assay; format: functional, cell-based; details: Mus musculus, Colon 26, light or radiation study
[2] = tested on: Colon 26; test: Dark toxicity against […] Colon 26 cells assessed as inhibition of cell growth incubated for 24 hrs by MTT assay; format: functional, cell-based; details: Mus musculus, Colon 26, 24 h
[3] = Octanol-water partition coefficient, logP of the compound at pH 7.4 incubated for 10 mins by shake-flask method; format: physicochemical
[4] = Drug uptake in […] Colon 26 cells measured per mg of protein after 3 hrs by auto-well gamma counter analysis; format: ADME, cell-based; details: mouse, colon 26, 3 h
[5] = Biodistribution in liver of BALB/c mouse xenografted with […] Colon 26 cells at 37 kBq, iv measured upto 96 hrs by auto-well gamma counter analysis; format: ADME, organism-based; details: in vivo
[6] = Biodistribution in spleen of BALB/c mouse xenografted with […] Colon 26 cells at 37 kBq, iv measured upto 96 hrs by auto-well gamma counter analysis; format: ADME, organism-based; details: in vivo
[7] = Biodistribution in lung of BALB/c mouse xenografted with […] Colon 26 cells at 37 kBq, iv measured upto 96 hrs by auto-well gamma counter analysis; format: ADME, organism-based; details: in vivo
[8] = Biodistribution in Tumor/blood of BALB/c mouse xenografted with […] Colon 26 cells at 37 kBq, iv by auto-well gamma counter analysis; format: ADME, organism-based; details: in vivo, 96 h, TDE = time-dependent effect
[9] = Biodistribution in Tumor/muscle of BALB/c mouse xenografted with […] Colon 26 cells at 37 kBq, iv measured at 48 hrs by auto-well gamma counter analysis; format: ADME, organism-based; details: in vivo
[10] = Drug uptake in Tumor of BALB/c mouse xenografted with […] Colon 26 cells at 37 kBq, iv measured at 48 hrs by auto-well gamma counter analysis; format: ADME, organism-based, Neoplasm; details: in vivo
[11] = Toxicity in BALB/c mouse xenografted with […] Colon 26 cells assessed as weight loss at 13.6 umol/kg, iv pretreated for 24 hrs followed by 30 mins irradiation with 50 W LED light and measured upto 7 days; format: organism-based; details: in vivo, 168 h, dose 13.6 µmol/kg, time < 7 day
[12] = Induction of singlet oxygen production in DMSO assessed as singlet oxygen quantum yield by measuring the photooxidation of 9,10-dimethylanthracene at 5 uM irradiated with 50 W LED light; format: functional
[13] = tested on: Colon 26; test: Photodynamic therapeutic activity against […] Colon 26 cells /c xenografted in BALB/c mouse assessed as tumor growth inhibition at 13.6 umol/kg, iv pretreated for 24 hrs followed by 30 mins irradiation with 50 W LED light and measured upto 7 days; format: functional, organism-based; details: dose 13.6 µmol/kg, time <= 7.0 day, tested as the 125I-labelled form

Question: With `O=c1[nH]cc(F)c(=O)[nH]1` [FLUOROURACIL] as the compound, how does the IC50 [1] read?
Answer: 4.1 µM

Question: And the IC50 [2]?
Answer: 3.87 µM

Question: What does the source list for `Oc1ccc(-c2c3nc(c(-c4ccccc4)c4ccc([nH]4)c(-c4ccccc4)c4nc(c(-c5ccccc5)c5ccc2[nH]5)C=C4)C=C3)cc1[125I]`?
Answer: logD at 10 min [3]: 2.96; Drug uptake [4]: 54%; Drug uptake [5]: Active; Drug uptake [6]: Active; Drug uptake [7]: Active; Drug uptake [8]: Tde; Drug uptake [9]: Active; Drug uptake [10]: 18 % ID/g; Activity [11]: Non-Toxic

Question: Which Activity [12] does the source give for `O=C(N[C@@H](Cc1ccc(O)c(I)c1)C(=O)O)c1ccc(-c2c3nc(c(-c4ccccc4)c4ccc([nH]4)c(-c4ccccc4)c4nc(c(-c5ccccc5)c5ccc2[nH]5)C=C4)C=C3)cc1` here?
Answer: 0.51

Question: What about the IC50 [1] of the same compound?
Answer: 5.28 µM

Question: And the IC50 [2]?
Answer: > 100 µM

Question: And the Activity [13]?
Answer: Active

Question: With `O=C(N[C@@H](Cc1ccc(O)c([125I])c1)C(=O)O)c1ccc(-c2c3nc(c(-c4ccccc4)c4ccc([nH]4)c(-c4ccccc4)c4nc(c(-c5ccccc5)c5ccc2[nH]5)C=C4)C=C3)cc1` as the compound, how does the logD at 10 min [3] read?
Answer: 2.55

Question: And the Drug uptake [4]?
Answer: 52.9%

Question: What about the Drug uptake [5] of the same compound?
Answer: Active

Question: And the Drug uptake [6]?
Answer: Active

Question: And the Drug uptake [7]?
Answer: Active

Question: What about the Drug uptake [8] of the same compound?
Answer: Tde

Question: And the Drug uptake [9]?
Answer: Active

Question: And the Drug uptake [10]?
Answer: 8.7 % ID/g

Question: And the Activity [11]?
Answer: Non-Toxic

Question: With `C1=Cc2nc1c(-c1ccccc1)c1ccc([nH]1)c(-c1ccccc1)c1nc(c(-c3ccccc3)c3ccc([nH]3)c2-c2ccccc2)C=C1` as the compound, how does the Activity [12] read?
Answer: 0.52

Question: For `Oc1ccc(-c2c3nc(c(-c4ccccc4)c4ccc([nH]4)c(-c4ccccc4)c4nc(c(-c5ccccc5)c5ccc2[nH]5)C=C4)C=C3)cc1I`, which Activity [12] is on record?
Answer: 0.65

Question: And the IC50 [1]?
Answer: 8.77 µM

Question: What about the IC50 [2] of the same compound?
Answer: > 50 µM

Question: What about the Activity [13] of the same compound?
Answer: Active
